{
  "source": "patent US20200164023A1",
  "about": "“METHODS FOR PREVENTING AND TREATING INTRA-ABDOMINAL CANDIDIASIS” (Cidara Therapeutics, Inc., priority 2017, published 2020)",
  "test_system": "C. glabrata isolates",
  "assay": "Susceptibility profiles of C. glabrata clinical isolates",
  "format": "cell-based",
  "excerpt": "168 C. glabrata isolates are collected from blood or other sterile sites in our repository. 11 clinical isolates are selected that display various susceptibility profiles against anidulafungin, caspofungin, and micafungin, and/or harbor mutant or wild-type FKS genes (Table 1). Additionally, 29 isolates are picked that are susceptible to all three echinocandins and harbor wild-type FKS genes. These 40 clinical isolates undergo CD101 susceptibility testing according to the CLSI broth microdilution reference methods. Stock solutions are prepared in DMSO. […] MICs are determined visually after 24-h of incubation. C. krusei ATCC 6258 and C. parapsilosis ATCC 22019 are included for quality controls.",
  "data": [
    {"compound": "CC[C@H](C)C[C@H](C)CCCCCCCCC(=O)N[C@H]1C[C@@H](O)[C@@H](NCCN)NC(=O)[C@@H]2[C@@H](O)CCN2C(=O)[C@H]([C@H](O)CCN)NC(=O)[C@H]([C@H](O)[C@@H](O)c2ccc(O)cc2)NC(=O)[C@@H]2C[C@@H](O)CN2C(=O)[C@H]([C@@H](C)O)NC1=O", "note": "[Caspofungin, caspofungin]", "values": [
      {"measurement": "susceptibility profile, value", "setting": "Isolate 1, FKS R653I", "result": 0.125},
      {"measurement": "susceptibility profile, value", "setting": "Isolate 2, FKS Wild-type", "result": 0.25},
      {"measurement": "susceptibility profile, value", "setting": "Isolate 3, FKS F659L", "result": 1},
      {"measurement": "susceptibility profile, value", "setting": "Isolate 4, FKS F659S", "result": 1},
      {"measurement": "susceptibility profile, value", "setting": "Isolate 5, FKS R636S", "result": 4},
      {"measurement": "susceptibility profile, value", "setting": "Isolate 6, FKS F659del", "result": 8},
      {"measurement": "susceptibility profile, value", "setting": "Isolate 7, FKS S663P", "result": 8},
      {"measurement": "susceptibility profile, value", "setting": "Isolate 8, FKS S663P", "result": 0.5},
      {"measurement": "susceptibility profile, value", "setting": "Isolate 9, FKS D632Y", "result": 2},
      {"measurement": "susceptibility profile, value", "setting": "Isolate 10, FKS D632Y", "result": 2},
      {"measurement": "susceptibility profile, value", "setting": "Isolate 11, FKS F659del", "result": 16}
    ]}
  ]
}
